US20080206219A1, “Novel Indications for Transforming Growth Factor-Beta Regulators” (THE REGENCTS OF THE UNIVERSITY OF CALIFORNIA, priority 2003, published 2008)

B1: VEGFA164: VEGF164 (Chemicon), agent known to induce vascular leakage via VEGFR2 (protein)
chain: APTTEGEQKSHEVIKFMDVYQRSYCRPIETLVDIFQEYPDEIEYIFKPSCVPLMRCAGCCNDEALECVPTSESNITMQIMRIKPHQSQHIGEMSFLQHSRCECRPKKDRTKPENHCEPCSERRKHLFVQDPQTCKCSCKNTDSRCKARQLELNERTCRCDKPRR

What was measured:
Format in all cases: in vivo
[1] = tested on: Collα1(I)+/+ and Collα1(I)r/r mice; assay: Miles assay: Evans blue leakage in ears after mustard oil challenge; conditions: for Evans blue staining of ears following MO exposure: 5% mustard oil in mineral oil
Description: Evans blue (EB) dye (30 mg/kg in 100 μl PBS; Sigma-Aldrich) was injected into the tail vein of 7- to 8-week-old mice. In some experiments, after 1-min, 30 μl of 5% mustard oil (Phenyl Isothiocyanate, 98%, Sigma-Aldrich) diluted in mineral oil (Sigma-Aldrich) was applied to the dorsal and ventral surfaces of the ear; the application process was repeated 15 minutes later. Isoflurane anesthesized mice were photographed 30 minutes after injection of EB dye. Anesthesized mice were then cardiac perfused, ears removed, blotted dry and weighed. EB dye was extracted from ears in 1 ml of formamide overnight to 48-hrs at 60° C. and measured spectrophotometrically at 610 nm in a SpectraMax 340™ (Molecular Devices). Data are expressed as mean±SEM. Comparisons of the amounts of dye extravasation were evaluated by Mann-Whitney statistical test with p values less than 0.05 considered significant. In some experiments, 5-min prior to the infusion of EB dye, shaved 5-to 7-week old mice were injected (10 μl) intradermally with one of the following agents at the concentrations shown (VEGF120, R&D Systems; VEGF164, Chemicon; histamine, Calbiochem; serotonin, Sigma-Aldrich) and the appearance of a blue spot monitored for 30 minutes at which time mice were euthanized, cardiac perfused, photographed and the area of skin surrounding the site of injection excised (˜5 mm^2), photographed and EB dye extracted as above. […]
The vascular physiology in a mouse model of human Sc, e.g., Collα1(I)^r/r mice, was studied to determine whether an altered balance between collagen synthesis, accumulation and/or degradation was a rate-limiting factor for efficient vascular physiology prior to histopathologic appearance of Sc disease. The ears of Collα1(I)^r/r versus littermate control (Collα1(I)^+/+) mice were treated with vehicle alone (mineral oil; FIG. 1A) or mustard oil (MO; 5% in mineral oil: right ear), an inflammatory agent that induces plasma leakage, vasodilation of capillaries and inflammation in the skin (FIG. 1A). Evans blue dye (30 mg/kg in 100 μl PBS; Sigma Chemical Co., St. Louis, Mo., USA) was injected into the tail vein of the mice. After 1 minute, 5% mustard oil (Phenyl Isothiocyanate, 98%, Sigma) diluted in mineral oil (Sigma) was applied to the dorsal and ventral surfaces of the ear with a cotton swab; the application process was repeated 15 minutes later. […] Isoflurane anesthesized mice were photographed 30 minutes after injection of Evans blue dye. Anesthesized mice were then cardiac perfused, ears removed, blotted dry, and weighed. The Evans blue dye was extracted from the ears with 1 ml of formamide overnight at 60° C. and measured spectrophotometrically at 610 nm in a SpectraMax 340™ (Molecular Devices). Data are expressed as mean±SEM. Comparisons of the amounts of dye extravasation were evaluated by the Fisher's t test with p values less than 0.05 considered significant.
Vascular permeability (VP) responses in control and Collα1(I)^r/r mice treated with a broad spectrum synthetic metalloproteinase inhibitor (MPI), e.g., GM6001 were examined. GM6001 (N-[(2R)-2(hydroxyamidocarbonylmethyl)-4-methylpantanoyl]-L-tryptophan ethylamide), a broad, class-specific metalloproteinase inhibitor (Chemicon, Temecula Calif.), was administered daily i.p. at 100 mg/kg body weight as a 20 mg/ml slurry in 4% carboxymethylcellulose in 0.9% PBS daily for 3-days. Controls were treated with a daily injection of 4% carboxymethylcellulose in PBS. The animals were then subject to cutaneous challenge with MO and qualitative and quantitative assessment of Evans blue dye leakage into vascular stroma (FIG. 5A).

[2] = tested on: control and Collα1(I)r/r mice; assay: Fluorescent angiography of whole mounted ears after mustard oil
[3] = tested on: control and Collα1(I)r/r mice; assay: Modified Miles assay: intradermal injection of permeability-inducing agents; conditions: for Evans blue leakage response after intradermal injection: Collα1(I)r/r mice versus control mice, all concentrations tested; for leakage of Evans blue dye into stroma after intradermal injection: control mice, increasing concentrations
Description: Evans blue (EB) dye (30 mg/kg in 100 μl PBS; Sigma-Aldrich) was injected into the tail vein of 7- to 8-week-old mice. In some experiments, after 1-min, 30 μl of 5% mustard oil (Phenyl Isothiocyanate, 98%, Sigma-Aldrich) diluted in mineral oil (Sigma-Aldrich) was applied to the dorsal and ventral surfaces of the ear; the application process was repeated 15 minutes later. Isoflurane anesthesized mice were photographed 30 minutes after injection of EB dye. Anesthesized mice were then cardiac perfused, ears removed, blotted dry and weighed. EB dye was extracted from ears in 1 ml of formamide overnight to 48-hrs at 60° C. and measured spectrophotometrically at 610 nm in a SpectraMax 340™ (Molecular Devices). Data are expressed as mean±SEM. Comparisons of the amounts of dye extravasation were evaluated by Mann-Whitney statistical test with p values less than 0.05 considered significant. In some experiments, 5-min prior to the infusion of EB dye, shaved 5-to 7-week old mice were injected (10 μl) intradermally with one of the following agents at the concentrations shown (VEGF120, R&D Systems; VEGF164, Chemicon; histamine, Calbiochem; serotonin, Sigma-Aldrich) and the appearance of a blue spot monitored for 30 minutes at which time mice were euthanized, cardiac perfused, photographed and the area of skin surrounding the site of injection excised (˜5 mm^2), photographed and EB dye extracted as above.
The vascular leakage in control and Collα1(I)^r/r mice following intradermal injection of other agents known to induce vascular leakage, e.g., VEGFA120, VEGFA164 and serotonin (versus vehicle alone), by interacting with distinct cell surface receptors, e.g., VEGF receptor-2 (VEGFR2) and serotonin receptors, respectively (FIG. 3A) were assessed. 5 min prior to the infusion of Evans blue dye, shaved 5-to 7-week old mice were injected (10 μl) intradermally with VEGF120 (R&D Systems) VEGF164 (Chemicon; histamine, Calbiochem) serotonin (Sigma) TIMP-1 (Oncogene Research Products, San Diego Calif.) and the appearance of a blue spot monitored for 30 minutes at which time mice were euthanized, cardiac perfused, photographed and the area of skin surrounding the site of injection excised (˜5 mm^2), photographed and Evans blue dye extracted as above.

VEGFR2 = molecular target: T1, VEGFR2 (Mus musculus, UniProt P35918); assay: VEGFR2 phosphorylation, IP-western of tissue lysates after intradermal VEGF164; conditions: control and Collα1(I)r/r mice; VEGF164 10 ng i.d.
T1 construct: tissue lysates were subjected to immunoprecipitation with anti-VEGFR2 antibodies; from tissue; host or cells: mouse skin after intradermal VEGF164 or BSA
T1 sequence (P35918 20-1345): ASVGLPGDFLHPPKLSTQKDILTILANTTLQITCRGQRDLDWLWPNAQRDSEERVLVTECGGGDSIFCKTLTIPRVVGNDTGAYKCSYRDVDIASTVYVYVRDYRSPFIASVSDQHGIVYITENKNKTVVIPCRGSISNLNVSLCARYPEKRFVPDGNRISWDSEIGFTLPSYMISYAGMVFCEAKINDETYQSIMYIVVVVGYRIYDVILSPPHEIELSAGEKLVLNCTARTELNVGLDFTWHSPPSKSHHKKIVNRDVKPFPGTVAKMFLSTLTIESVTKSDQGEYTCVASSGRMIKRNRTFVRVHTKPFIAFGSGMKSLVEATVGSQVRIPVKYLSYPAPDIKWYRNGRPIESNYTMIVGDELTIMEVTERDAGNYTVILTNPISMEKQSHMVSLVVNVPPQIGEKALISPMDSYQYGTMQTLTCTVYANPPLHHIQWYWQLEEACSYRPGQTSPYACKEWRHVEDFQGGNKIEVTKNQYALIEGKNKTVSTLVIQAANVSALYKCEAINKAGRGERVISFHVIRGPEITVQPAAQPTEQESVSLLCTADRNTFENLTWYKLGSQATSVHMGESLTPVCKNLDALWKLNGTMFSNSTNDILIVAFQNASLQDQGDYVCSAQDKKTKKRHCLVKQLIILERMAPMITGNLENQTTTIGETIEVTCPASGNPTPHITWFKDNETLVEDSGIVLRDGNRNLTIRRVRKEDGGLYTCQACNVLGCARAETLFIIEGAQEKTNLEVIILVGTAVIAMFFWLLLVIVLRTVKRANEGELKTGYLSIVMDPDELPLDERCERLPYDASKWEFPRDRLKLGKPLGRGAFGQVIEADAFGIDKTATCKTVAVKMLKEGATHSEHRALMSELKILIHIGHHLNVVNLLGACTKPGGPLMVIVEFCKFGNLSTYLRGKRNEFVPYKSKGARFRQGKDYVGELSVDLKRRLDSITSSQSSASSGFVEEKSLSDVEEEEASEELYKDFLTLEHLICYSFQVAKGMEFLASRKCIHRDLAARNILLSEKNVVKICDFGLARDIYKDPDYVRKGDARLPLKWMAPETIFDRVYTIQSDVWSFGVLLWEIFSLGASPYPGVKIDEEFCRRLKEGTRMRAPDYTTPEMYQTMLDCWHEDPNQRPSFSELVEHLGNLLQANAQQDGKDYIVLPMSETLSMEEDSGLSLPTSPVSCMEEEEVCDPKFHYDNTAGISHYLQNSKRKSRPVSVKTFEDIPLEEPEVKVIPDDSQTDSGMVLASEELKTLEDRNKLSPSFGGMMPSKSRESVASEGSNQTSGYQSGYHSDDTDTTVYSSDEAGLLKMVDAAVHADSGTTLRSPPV
Description: VEGFR2: Tissue pieces (5 mm^2) from animals were collected from ears or following shaving of back skin or following injection (i.d.) of 10 μl 10 ng VEGF164 or 0.1% BSA in PBS. Tissues were pulverized in liquid N2 followed by lysis in ice-cold buffer containing 20 mM Tris, pH 7.6, 150 mM NaCl, 1 mM EDTA, 50 mM NaF, 1% triton X-100, 0.5% Na-deoxycholate, 0.1% SDS, 2 mM Na2VO4, 10 μg/ml aprotinin, 1 mM phenylmethylsulfonylfluoride and centrifuged at 10,000 rpm for 30-min at 4° C. The supernatants were recentrifuged at 10,000 rpm for 30-min at 4° C. Lysates were then incubated in a slurry of heparin-Sepharose CL-6B (Pharmacia) and incubated overnight rocking at 4C, centrifugation and equilibrated to 150 mM NaCl. Protein was dialyzed against PBS and quantified using the BioRad protein assay system (BioRad). Before immunoprecipitation, BSA was added to the pre-cleared lysates to 0.5%. Equal amounts of protein (1 mg) from lysates were used for immunopreciptations and Western blotting. […]
Following intradermal injection of VEGF164 (10 ng), tissue lysates were subjected to immunoprecipitation with anti-VEGFR2 antibodies, followed by SDS-PAGE electrophoreses of immune complexes and western blot analysis with anti phospho-tyrosine and anti-VEGFR2 antibodies (FIG. 3B). […] Protein was dialyzed against PBS and quantified using the BioRad protein assay system (BioRad, Hercules, Calif.). […]

Molecule	amount of Evans blue leaked in response to MO, lower than in control animals ([1]; Collα1(I)r/r mice versus controls, p=0.0002) [%]	Evans blue staining of ears following MO exposure ([1]; Collα1(I)r/r mice)	Evans blue staining of ears following MO exposure ([1]; littermate control mice)	total vascular area after MO versus vehicle ([2]; Collα1(I)r/r mice)	vasodilation of macrovasculature (vessel diameter) after MO ([2]; Collα1(I)r/r mice)	vasodilation of macrovasculature (vessel diameter) after MO ([2]; control mice)	total vascular area after MO versus vehicle ([2]; control mice, p<0.04)	Evans blue leakage response after intradermal injection [3]	leakage of Evans blue dye into stroma after intradermal injection [3]	phosphorylation of VEGFR2 following exposure to VEGF (VEGFR2)
S=C=Nc1ccccc1 [MO, Phenyl Isothiocyanate]	~50	remained pale with only a modest hint of blue	moderately blue	unchanged	not observed	increased vasodilation of macrovasculature	significant increase in total vascular area			
NCCc1c[nH]c2ccc(O)cc12 [serotonin]								significantly inhibited	significant leakage	
B1								significantly inhibited	significant leakage	similarly increased levels of phosphorylation
